In patent US9242958B2, “Substituted pyridazine carboxamide compounds as kinase inhibitor compounds” (Xcovery Holding Company LLC, priority 2010, dated 2016):
Marks after values point to notes of the source that are not given here.

How the values were obtained:
[1] = target: T1, c-Met (Homo sapiens, UniProt P08581); assay: Kinase binding assay (Met biochemical assay, affinity beads/qPCR)
T1 construct: T7 phage fusion (kinase-tagged T7 phage), or alternatively a DNA tag for qPCR; made in house; host or cells: E. coli BL21-derived host (T7 phage display) or HEK-293 cells
T1 sequence (P08581 25-1390): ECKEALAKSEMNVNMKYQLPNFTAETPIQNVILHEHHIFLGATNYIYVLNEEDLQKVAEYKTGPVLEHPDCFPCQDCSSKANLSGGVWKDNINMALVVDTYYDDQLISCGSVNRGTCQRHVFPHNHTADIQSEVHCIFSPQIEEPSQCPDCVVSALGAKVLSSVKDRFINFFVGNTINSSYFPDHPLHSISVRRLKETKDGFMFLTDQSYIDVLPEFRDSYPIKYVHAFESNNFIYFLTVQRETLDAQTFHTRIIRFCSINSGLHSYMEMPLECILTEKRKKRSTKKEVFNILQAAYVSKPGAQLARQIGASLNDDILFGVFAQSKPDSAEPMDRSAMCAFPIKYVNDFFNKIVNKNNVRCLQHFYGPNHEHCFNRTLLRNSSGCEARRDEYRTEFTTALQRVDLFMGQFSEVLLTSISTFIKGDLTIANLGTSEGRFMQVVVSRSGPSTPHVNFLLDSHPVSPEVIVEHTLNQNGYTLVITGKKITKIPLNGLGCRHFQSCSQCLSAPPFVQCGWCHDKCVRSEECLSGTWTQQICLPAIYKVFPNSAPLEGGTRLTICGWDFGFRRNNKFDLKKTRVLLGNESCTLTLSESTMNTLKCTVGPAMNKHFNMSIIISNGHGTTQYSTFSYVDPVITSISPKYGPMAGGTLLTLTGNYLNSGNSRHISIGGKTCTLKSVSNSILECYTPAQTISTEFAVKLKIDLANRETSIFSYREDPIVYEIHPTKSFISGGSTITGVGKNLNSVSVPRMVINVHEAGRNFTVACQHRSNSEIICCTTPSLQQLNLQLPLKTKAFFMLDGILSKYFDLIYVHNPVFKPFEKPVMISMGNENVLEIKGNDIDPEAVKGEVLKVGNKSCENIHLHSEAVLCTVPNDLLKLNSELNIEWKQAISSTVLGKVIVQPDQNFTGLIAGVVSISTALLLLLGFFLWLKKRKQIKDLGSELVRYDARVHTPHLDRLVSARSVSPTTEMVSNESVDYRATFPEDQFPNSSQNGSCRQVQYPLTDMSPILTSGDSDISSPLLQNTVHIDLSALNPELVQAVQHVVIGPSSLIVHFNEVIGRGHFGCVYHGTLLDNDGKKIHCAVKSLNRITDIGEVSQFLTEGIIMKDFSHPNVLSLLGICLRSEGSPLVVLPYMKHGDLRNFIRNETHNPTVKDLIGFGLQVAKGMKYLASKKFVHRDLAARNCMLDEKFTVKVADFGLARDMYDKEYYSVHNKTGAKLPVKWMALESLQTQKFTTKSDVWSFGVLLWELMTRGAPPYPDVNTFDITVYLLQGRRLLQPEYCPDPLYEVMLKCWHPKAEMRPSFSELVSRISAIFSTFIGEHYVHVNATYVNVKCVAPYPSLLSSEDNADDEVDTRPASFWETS
Description: (§1) Met, ALK Biochemical Assays
(§2) Kinase Assays. […] 23, p. […] 26, p.
(§3) For most assays, kinase-tagged T7 phage strains were grown in parallel in 24-well blocks in an E. coli host derived from the BL21 strain. E. coli were grown to log-phase and infected with T7 phage from a frozen stock (multiplicity of infection ˜0.1) and incubated with shaking at 32° C. until lysis (˜90 minutes). The lysates were centrifuged (6,000×g) and filtered ([…]) to remove cell debris. The remaining kinases were produced in HEK-293 cells and subsequently tagged with DNA for qPCR detection. […] The liganded beads were blocked with excess biotin and washed with blocking buffer (SeaBlock (Pierce), 1% BSA, 0.05% Tween 20, 1 mM DTT) to remove unbound ligand and to reduce non-specific phage binding. […] Test compounds were prepared as 40× stocks in 100% DMSO and directly diluted into the assay. All reactions were performed in polypropylene 384-well plates in a final volume of 0.04 ml. […] The kinase concentration in the eluates was measured by qPCR.

[2] = target: T2, ALK (Homo sapiens, UniProt Q9UM73); assay: Kinase binding assay (ALK biochemical assay, affinity beads/qPCR)
T2 construct: T7 phage fusion (kinase-tagged T7 phage), or alternatively a DNA tag for qPCR; made in house; host or cells: E. coli BL21-derived host (T7 phage display) or HEK-293 cells
T2 sequence (Q9UM73 19-1620): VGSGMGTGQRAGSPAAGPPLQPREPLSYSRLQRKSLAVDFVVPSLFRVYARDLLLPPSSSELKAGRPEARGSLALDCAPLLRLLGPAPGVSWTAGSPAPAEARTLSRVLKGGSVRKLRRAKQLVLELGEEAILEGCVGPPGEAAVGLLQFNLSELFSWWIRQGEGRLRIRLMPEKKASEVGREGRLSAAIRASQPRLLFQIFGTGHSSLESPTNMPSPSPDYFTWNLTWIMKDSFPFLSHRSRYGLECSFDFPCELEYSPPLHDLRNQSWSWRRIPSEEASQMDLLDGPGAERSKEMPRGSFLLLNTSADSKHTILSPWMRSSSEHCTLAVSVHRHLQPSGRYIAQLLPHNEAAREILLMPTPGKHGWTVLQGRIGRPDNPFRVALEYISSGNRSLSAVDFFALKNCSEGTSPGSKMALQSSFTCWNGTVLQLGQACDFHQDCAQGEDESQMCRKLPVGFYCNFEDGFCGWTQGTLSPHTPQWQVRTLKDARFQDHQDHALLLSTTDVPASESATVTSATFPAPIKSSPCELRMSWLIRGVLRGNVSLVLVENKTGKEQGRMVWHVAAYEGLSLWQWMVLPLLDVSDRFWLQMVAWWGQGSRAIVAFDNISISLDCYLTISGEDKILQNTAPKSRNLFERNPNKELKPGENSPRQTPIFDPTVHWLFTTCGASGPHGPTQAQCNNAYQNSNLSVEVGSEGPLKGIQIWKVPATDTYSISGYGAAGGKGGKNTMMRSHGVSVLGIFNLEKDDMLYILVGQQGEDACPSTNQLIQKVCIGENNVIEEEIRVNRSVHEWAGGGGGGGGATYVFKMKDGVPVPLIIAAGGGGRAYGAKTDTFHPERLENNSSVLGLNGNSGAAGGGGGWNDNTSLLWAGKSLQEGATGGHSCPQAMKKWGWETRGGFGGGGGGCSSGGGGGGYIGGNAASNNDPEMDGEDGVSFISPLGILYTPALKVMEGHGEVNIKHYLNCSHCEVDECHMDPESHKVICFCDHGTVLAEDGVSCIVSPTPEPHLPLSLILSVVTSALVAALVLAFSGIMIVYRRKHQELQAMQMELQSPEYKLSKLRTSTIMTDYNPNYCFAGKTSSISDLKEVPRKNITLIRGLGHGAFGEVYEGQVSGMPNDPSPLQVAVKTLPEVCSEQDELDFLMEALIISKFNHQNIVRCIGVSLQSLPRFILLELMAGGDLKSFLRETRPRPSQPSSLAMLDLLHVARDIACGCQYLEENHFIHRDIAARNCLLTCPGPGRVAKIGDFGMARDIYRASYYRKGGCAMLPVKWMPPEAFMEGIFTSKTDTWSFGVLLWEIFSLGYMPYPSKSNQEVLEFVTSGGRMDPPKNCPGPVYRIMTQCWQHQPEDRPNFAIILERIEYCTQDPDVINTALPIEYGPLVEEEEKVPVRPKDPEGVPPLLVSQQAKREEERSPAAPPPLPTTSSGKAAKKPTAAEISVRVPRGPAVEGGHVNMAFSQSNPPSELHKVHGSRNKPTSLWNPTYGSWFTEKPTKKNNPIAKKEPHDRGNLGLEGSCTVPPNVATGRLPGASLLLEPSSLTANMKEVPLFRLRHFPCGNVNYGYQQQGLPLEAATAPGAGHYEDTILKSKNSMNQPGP
Description: as §1, §2, §3

[3] = system: U-87 MG xenograft tumor; assay: In vivo anti-tumor efficacy against U-87MG tumor xenograft model; parameters: species or system Balb/c nude mice
Description: In Vivo Anti-Tumor Efficacy of Compound 1 of EXAMPLE 1 Against U-87MG Tumor Xenograft Model
Balb/c nude mice (6 weeks old, male) were purchased from Shanghai Slac Laboratory Animal Co. Ltd (Shanghai, China). All mice were maintained in a pathogen-free facility for ˜2 weeks before implantation. They were housed in plastic cages (4˜6 mice/cage) containing corn cob and maintained in a pathogen-free facility (20˜25° C., 30˜70% humidity) with a 12-h light:dark cycle.
U-87 MG xenograft model was established by implanting athymic Balb/c nude mice s.c in the right flank with U-87 MG cells, 3.6×10^6/mouse (120 ul). Tumors were allowed to reach 120˜380 mm^3 in size.
Tumor volumes were measured twice a week with caliper. Tumor volumes were calculated by the formula <Tumor volume=length×width^2/2>.
Percentage of tumor growth inhibition (GI) after initiation of treatment was calculated by the formula: GI=100×{1−[(tumor volumefinal−tumor volumeinitial for the compound-treated group)/(tumor volumefinal−tumor volumeinitial for the vehicle-treated group)]} Relative tumor volume is defined as the ratio of the volume at a given time and the volume at the start of treatment. The relative tumor volume (RTV) was calculated by the formula: RTV=100×TVT/TV0

[4] = 25 mg/kg ig BID, d28 post implantation
[5] = 25 mg/kg ig BID, d31 post implantation
[6] = 50 mg/kg ig BID, d28 post implantation
[7] = 50 mg/kg ig BID, d31 post implantation

Work on `CC(Oc1cc(C(=O)Nc2ccc(=O)[nH]c2)nnc1N)c1c(Cl)ccc(F)c1Cl` (racemic) [Example 5, {6-amino-5-[(2,6-dichloro-3-fluorophenyl)ethoxy]pyridazin-3-yl}-N-(6-oxo-1,6-dihydro-pyridin-3-yl)carboxamide] yielded an IC50 [1] of under 5 nM and an IC50 [2] of over 10 nM.
`COCCn1cc(NC(=O)c2cc(OC(C)c3c(Cl)ccc(F)c3Cl)c(N)nn2)ccc1=O` (racemic) [Example 6, {6-amino-5-[(2,6-dichloro-3-fluorophenyl)ethoxy]pyridazin-3-yl}-N-[1-(2-methoxyethyl)-6-oxo-1,6-dihydro-pyridin-3-yl]carboxamide] showed an IC50 [1] of under 5 nM and an IC50 [2] of over 10 nM.
In the case of `CCn1cc(NC(=O)c2cc(OC(C)c3c(Cl)ccc(F)c3Cl)c(N)nn2)ccc1=O` (racemic) [Example 7, {6-amino-5-[(2,6-dichloro-3-fluorophenyl)ethoxy]pyridazin-3-yl}-N-(1-ethyl-6-oxo-1,6-dihydro-pyridin-3-yl)carboxamide], the IC50 [1] is reported as under 5 nM and the IC50 [2] is reported as over 10 nM.
With `C[C@@H](Oc1cc(C(=O)Nc2ccc(=O)n(C)c2)nnc1N)c1c(Cl)ccc(F)c1Cl` [Example 1, {5-[(1R)-1-(2,6-dichloro-3-fluorophenyl)ethoxy]-6-aminopyridazin-3-yl}-N-(1-methyl-6-oxo-1,6-dihydro-pyridin-3-yl)carboxamide] the IC50 [1] was under 5 nM, the IC50 [2] was over 10 nM and the “tumor volume (mean ± S.E)” value ([3]; 25 mg/kg ig BID, d24 post implantation (start of treatment)) was 230.4 ± 23.0 mm^3. For the same compound, the “tumor growth inhibition GI” value [3, 4] was 62.14%, the “tumor volume (mean ± S.E)” value [3, 4] was 365.7 ± 29.3** mm^3 and the “tumor growth inhibition GI” value [3, 5] was 77.04%. For the same compound, the “tumor volume (mean ± S.E)” value [3, 5] was 453.7 ± 19.7** mm^3, the “tumor volume (mean ± S.E)” value ([3]; 25 mg/kg ig BID, d35 post implantation) was 627.7 ± 33.9** mm^3 and the “tumor growth inhibition GI” value ([3]; 25 mg/kg ig BID, d35 post implantation (after 11 days of treatment)) was 65.95%. The “tumor volume (mean ± S.E)” value ([3]; 50 mg/kg ig BID, d24 post implantation (start of treatment)) was 230.2 ± 24.5 mm^3, the “tumor growth inhibition GI” value [3, 6] was 78.82% and the “tumor volume (mean ± S.E)” value [3, 6] was 305.9 ± 22.0** mm^3. For the same compound, the “tumor growth inhibition GI” value [3, 7] was 85.52%, the “tumor volume (mean ± S.E)” value [3, 7] was 337.4 ± 27.8** mm^3 and the “tumor volume (mean ± S.E)” value ([3]; 50 mg/kg ig BID, d35 post implantation) was 371.5 ± 34.4** mm^3. The “tumor growth inhibition GI” value ([3]; 50 mg/kg ig BID, d35 post implantation (after 11 days of treatment)) was 88.71%.
In the case of `CC(Oc1cc(C(=O)NC2CCC(=O)N(C)C2)nnc1N)c1c(Cl)ccc(F)c1Cl` (centres unmarked) [Example 4], the IC50 [1] is reported as over 100 nM and the IC50 [2] is reported as over 100 nM.
With `C[C@@H](Oc1cc(C(=O)Nc2ccc(C(=O)N3CCN(C)CC3)cc2)nnc1N)c1c(Cl)ccc(F)c1Cl` [reference compound] the IC50 [1] was under 5 nM and the IC50 [2] was under 5 nM.
